Reference: publication PMC6359543, “Efficacy of Azatyrosine-Phenylbutyric Hydroxamides, a Histone Deacetylase Inhibitor, on Chemotherapy-Induced Gastrointestinal Mucositis” (International Journal of Molecular Sciences, 2019)
Read-outs that look alike come from different tables or passages of the source.

Experiments:
IEC-6 cells [1] = assay: Cisplatin-reduced IEC-6 cell viability; format: cell-based, Rat; conditions: data not shown
[2] = test system: Salmonella typhimurium TA102
Procedure: Five strains of Salmonella typhimurium, TA98, TA102, TA100, TA1537, and TA1535, were obtained from Moltox (Boone, NC, USA). Mutagenicity was evaluated by the incorporation method in the presence or absence of S9 metabolic activation. A volume of 100 µL of each test bacterial culture (10^9 cells/mL), 2 mL soft agar (0.6% agar, 0.5% NaCl, 5 mM histidine, and […], pH 7.4, 40–50 °C), 0.5 mL S9 mixture (if necessary), and AzP were mixed well in a test tube. […] The revertant colonies were counted, and a positive mutagenic response was identified when (i) the number of revertants was at least double the spontaneous yield; (ii) a statistical significance (p ≤ 0.05) was found; and (iii) a reproducible positive dose response was present.

[3] = test system: Salmonella typhimurium TA1535; format: cell-based
Procedure: Five strains of Salmonella typhimurium, TA98, TA102, TA100, TA1537, and TA1535, were obtained from Moltox (Boone, NC, USA). Mutagenicity was evaluated by the incorporation method in the presence or absence of S9 metabolic activation [29]. A volume of 100 µL of each test bacterial culture (10^9 cells/mL), 2 mL soft agar (0.6% agar, 0.5% NaCl, 5 mM histidine, and 50 mM biotin, pH 7.4, 40–50 °C), 0.5 mL S9 mixture (if necessary), and AzP were mixed well in a test tube. […] The revertant colonies were counted, and a positive mutagenic response was identified when (i) the number of revertants was at least double the spontaneous yield; (ii) a statistical significance (p ≤ 0.05) was found; and (iii) a reproducible positive dose response was present.

IEC-6 cells [4] = assay: LPS-induced MAPK/Akt phosphorylation in IEC-6 cells (Western blot); format: cell-based, Rat
Procedure: Figure 6 Western blotting of IEC-6 cells treated with LPS and/or AzP. (A) IEC-6 cells (1 × 10^6 cells/mL) were dispensed on 6 cm dishes and (A) treated with LPS (500 ng/mL) for 10, 20, 30, 60, and 90 min. Data expressed as means ± SD from 3 independent experiments. * p < 0.05 as compared with the resting. (B) Treatment with LPS (500 ng/mL) for 10 min as indicated. Cells were treated with the indicated concentrations of AzP (5, 10, and 20 μM) or vehicle for 30 min before treatment with LPS. Cell lysates were collected for Western blot targeting p-ERK phosphorylation (Thr202/Tyr204, B), MEK phosphorylation ([…], C), and Akt phosphorylation (Ser473, D). Data expressed as means ± SD from 3 independent experiments. ### p < 0.001 as compared with the resting, * p < 0.05, ** p < 0.01 and *** p < 0.001 as compared with the vehicle.
(§1) IEC-6 cells were incubated in different AzP concentrations with/without LPS stimulation for 24 h. The homogenate from cells or tissues was then centrifuged at 14,000× g for 10 min at 4 °C and the supernatant was collected. Protein separation was performed using 10% reducing SDS-PAGE, electrotransferred onto polyvinylidene difluoride (PVDF), and immunoblotted with antibodies against inflammatory proteins as well as β-actin as control. Densitometry was performed using BioLight software V2000.01 (Uhldingen-Mühlhofen, Germany). The optical density of specific protein was normalized to an internal control and expressed as a ratio to control.

HDAC1 = molecular target: T1, HDAC1 (Homo sapiens, UniProt Q13547); assay: HDAC fluorometric activity assay, HDAC1; format: biochemical
T1 construct: purchased Enzo Life Sciences, Farmingdale, NY, USA
T1 sequence (Q13547 whole entry, species assumed): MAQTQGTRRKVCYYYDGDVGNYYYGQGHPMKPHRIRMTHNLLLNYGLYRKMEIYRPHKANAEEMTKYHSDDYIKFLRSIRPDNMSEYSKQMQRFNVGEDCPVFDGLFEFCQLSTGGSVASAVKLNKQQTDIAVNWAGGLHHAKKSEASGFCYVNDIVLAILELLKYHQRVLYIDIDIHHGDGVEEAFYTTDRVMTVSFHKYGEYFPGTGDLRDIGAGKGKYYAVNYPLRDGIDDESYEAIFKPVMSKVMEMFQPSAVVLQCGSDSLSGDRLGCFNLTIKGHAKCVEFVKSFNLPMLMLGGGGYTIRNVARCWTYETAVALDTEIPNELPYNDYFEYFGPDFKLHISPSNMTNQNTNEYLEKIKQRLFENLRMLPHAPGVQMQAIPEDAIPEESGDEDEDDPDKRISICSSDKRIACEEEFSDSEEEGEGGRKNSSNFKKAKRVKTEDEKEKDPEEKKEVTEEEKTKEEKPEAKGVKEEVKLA
Procedure: Pan HDAC enzyme (all the known class I HDACs-HDAC1, HDAC2, HDAC3, HDAC8 and class II HDACs 4-7, 9 and 10), HDAC subtype 1, 3 and 4 activity were determined by using the HDAC fluorometric cellular activity assay (Enzo Life Sciences, Farmingdale, NY, USA) according to the manufacturer’s protocol. […] Percent activity for each of the test compounds is calculated as follows:
Activity = {(Sc − B)/(S° − B)} × 100. […] IC50 was then calculated and represented as mean ± SD.

IEC-6 cells [5] = assay: LPS-induced inflammatory protein expression in IEC-6 cells (Western blot); format: cell-based, Rat; conditions: LPS 500 ng/mL 8 h, AzP 1–20 μM
Procedure: Figure 5 Hierarchical clustering and KEGG analyses of gene profiles of the AzP-manipulated IEC-6 cells. (A) Two independent experiments were performed, samples were named C1, C2 as control group (1% dimethyl sulfoxide (DMSO)); LPS1, LPS2 as lipopolysaccharide (LPS) 500 ng/mL group; LPS + AzP1, LPS + AzP2 as LPS 500 ng/mL and AzP 20 μM group. Heat maps showing the clustering analysis of the IEC-6 cells with different treatments (1% DMSO, LPS 500 ng/mL and/or AzP 20 μM) indicates up-regulation (red), down-regulation (green), and mean gene expression (black). […] IEC-6 cells were treated with LPS 500 ng/mL for 8 h and/or AzP 1–20 μM, Western blot performed and immunoblotted with several inflammatory protein expressions including MMP-9 (C), IL-1β (D), iNOS (E), and IL-6 (F). Density was measured and calculated. ### p < 0.001 as compared with the control, ## p < 0.01 as compared with the control, # p < 0.05 as compared with the control, * p < 0.05 as compared with the LPS-treated group, ** p < 0.01 as compared with the LPS-treated group and *** p < 0.001 as compared with LPS-treated group.
as §1

CC(C)(C)OC(=O)NC(Cc1ccc(OCc2ccccc2)cn1)C(=O)Nc1ccc(CCCC(=O)NO)cc1 (stereo not drawn) [AzP, Azatyrosine-phenylbutyric hydroxamides]
influence on cisplatin-reduced cell viability (IEC-6 cells [1]): did not influence
Ames test result, TA102 (-S9) ([2]; -S9): Negative
Revertant colonies per plate (+S9) TA102 ([2]; AzP 0.00245 mg/plate): 219.7±6.9
Revertant colonies per plate (-S9) TA102 ([2]; AzP 0.00245 mg/plate): 141±4.4
Revertant colonies per plate (+S9) TA102 ([2]; AzP 0.0049 mg/plate): 225.7±4.5
Revertant colonies per plate (-S9) TA102 ([2]; AzP 0.0049 mg/plate): 142.3±4.7
Revertant colonies per plate (+S9) TA102 ([2]; AzP 0.0098 mg/plate): 215±4
Revertant colonies per plate (-S9) TA102 ([2]; AzP 0.0098 mg/plate): 140.3±7.9
Revertant colonies per plate (+S9) TA102 ([2]; AzP 0.0195 mg/plate): 230.7±2
Revertant colonies per plate (-S9) TA102 ([2]; AzP 0.0195 mg/plate): 139.5±5.6
Revertant colonies per plate (+S9) TA102 ([2]; AzP 0.0391 mg/plate): 212.2±9.2
Revertant colonies per plate (-S9) TA102 ([2]; AzP 0.0391 mg/plate): 138.3±8.5
Revertant colonies per plate (+S9) TA102 ([2]; AzP 0.0781 mg/plate): 233.3±9.8
Revertant colonies per plate (-S9) TA102 ([2]; AzP 0.0781 mg/plate): 152.7±11.3
Revertant colonies per plate (+S9) TA102 ([2]; AzP 0.156 mg/plate): 217.3±4.8
Revertant colonies per plate (+S9) TA102 ([2]; AzP 0.3125 mg/plate): 230.1±8.4
Revertant colonies per plate (+S9) TA102 ([2]; AzP 0.625 mg/plate): 217.4±7.3
Ames test result, TA102 (|S9) ([2]; second S9 group): Negative
Ames test result, TA1535 (-S9) ([3]; -S9): Negative
Revertant colonies per plate (-S9) TA1535 ([3]; AzP 0.0195 mg/plate): 52±1.2
Revertant colonies per plate (+S9) TA1535 ([3]; AzP 0.0391 mg/plate): 46.5±3.3
Revertant colonies per plate (-S9) TA1535 ([3]; AzP 0.0391 mg/plate): 47.3±9
Revertant colonies per plate (+S9) TA1535 ([3]; AzP 0.0781 mg/plate): 50.5±4.9
Revertant colonies per plate (-S9) TA1535 ([3]; AzP 0.0781 mg/plate): 59±0.6
Revertant colonies per plate (+S9) TA1535 ([3]; AzP 0.156 mg/plate): 52.5±5.2
Revertant colonies per plate (-S9) TA1535 ([3]; AzP 0.156 mg/plate): 61.3±2.2
Revertant colonies per plate (+S9) TA1535 ([3]; AzP 0.3125 mg/plate): 51.7±3.6
Revertant colonies per plate (-S9) TA1535 ([3]; AzP 0.3125 mg/plate): 54.6±7.2
Revertant colonies per plate (+S9) TA1535 ([3]; AzP 0.625 mg/plate): 59.2±3.3
Revertant colonies per plate (-S9) TA1535 ([3]; AzP 0.625 mg/plate): 52.2±13.4
Revertant colonies per plate (+S9) TA1535 ([3]; AzP 1.25 mg/plate): 67±3.2
Revertant colonies per plate (+S9) TA1535 ([3]; AzP 2.5 mg/plate): 58±2.1
Ames test result, TA1535 (|S9) ([3]; second S9 group): Negative
LPS-induced ERK activation (phosphorylation) (IEC-6 cells [4]; LPS 500 ng/mL 10 min, AzP 5–20 μM): dose-dependently reverse
LPS-induced Akt phosphorylation (IEC-6 cells [4]; LPS 10 min, AzP 5–20 μM): concentration-dependently reversed
LPS-induced MEK1/2 phosphorylation (IEC-6 cells [4]; LPS 10 min, AzP 5–20 μM): concentration-dependently reversed
JNK phosphorylation (IEC-6 cells [4]; LPS, data not shown): unaffected
p38 phosphorylation (IEC-6 cells [4]; LPS, data not shown): unaffected
IKK phosphorylation (IEC-6 cells [4]; Western blot): unaffected
p65 phosphorylation (IEC-6 cells [4]; Western blot): unaffected
IC50 (HDAC1): 3.44 ± 0.68 µM
LPS-induced IL-1β protein expression (IEC-6 cells [5]): concentration-dependently inhibited
LPS-induced IL-6 protein expression (IEC-6 cells [5]): concentration-dependently inhibited
LPS-induced MMP9 protein expression (IEC-6 cells [5]): concentration-dependently inhibited
protein expression of iNOS (IEC-6 cells [5]): unaffected
